Columns and labels:
Assay in all cases: relative viability (nuclei count vs DMSO), 5 days (fraction); higher = more cells survive
[1] = system: COR-L23
Outline: (§1)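 Relative viability was taken as the ratio of nuclei in treated wells to nuclei in vehicle wells. Lung cancer cell lines in 1536-well plates received compounds by pin tool one day after seeding, either one drug alone or a fixed anchor-drug dose plus five library-drug doses (not always all listed) in √10 steps. Nuclei were counted on 4× images after 5 days of treatment, and values are medians of duplicate plates.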

[2] = system: ChaGo-K-1
Outline: as §1

[3] = system: EMC-BAC-2
Outline: as §1

[4] = system: EPLC-272H
Outline: as §1

[5] = system: H3255
Outline: as §1

[6] = system: HCC-827
Outline: as §1

[7] = system: LCLC-103H
Outline: as §1

[8] = system: LU99A
Outline: as §1

[9] = system: NCI-H1395
Outline: as §1

[10] = system: NCI-H1563
Outline: as §1

[11] = system: NCI-H1651
Outline: as §1

[12] = system: NCI-H1793
Outline: as §1

[13] = system: NCI-H1944
Outline: as §1

[14] = system: NCI-H2023
Outline: as §1

[15] = system: NCI-H2085
Outline: as §1

[16] = system: NCI-H2087
Outline: as §1

[17] = system: NCI-H2405
Outline: as §1

[18] = system: NCI-H520
Outline: as §1

[19] = system: NCI-H650
Outline: as §1

[20] = system: NCI-H838
Outline: as §1

[21] = system: SK-MES-1
Outline: as §1

SMILES: CC(=O)O[C@@]12CO[C@@H]1C[C@H](O)[C@@]1(C)C(=O)[C@H](O)C3=C(C)[C@@H](OC(=O)[C@H](O)[C@@H](NC(=O)OC(C)(C)C)c4ccccc4)C[C@@](O)([C@@H](OC(=O)c4ccccc4)[C@H]21)C3(C)C [Docetaxel] + Cc1nc(Nc2ncc(C(=O)Nc3c(C)cccc3Cl)s2)cc(N2CCN(CCO)CC2)n1 [Dasatinib] (partner 0.075 µM)
- relative viability ([1]; first compound 0.0002 µM): 0.458
- relative viability ([1]; first compound 0.000632 µM): 0.406
- relative viability ([1]; first compound 0.002 µM): 0.226
- relative viability ([1]; first compound 0.006325 µM): 0.112
- relative viability ([1]; first compound 0.02 µM): 0.0725
- relative viability ([2]; first compound 0.0002 µM): 0.486
- relative viability ([2]; first compound 0.000632 µM): 0.429
- relative viability ([2]; first compound 0.002 µM): 0.404
- relative viability ([2]; first compound 0.006325 µM): 0.257
- relative viability ([2]; first compound 0.02 µM): 0.132
- relative viability ([3]; first compound 0.0002 µM): 0.298
- relative viability ([3]; first compound 0.000632 µM): 0.232
- relative viability ([3]; first compound 0.002 µM): 0.192
- relative viability ([3]; first compound 0.006325 µM): 0.228
- relative viability ([3]; first compound 0.02 µM): 0.132
- relative viability ([4]; first compound 0.0002 µM): 0.358
- relative viability ([4]; first compound 0.000632 µM): 0.235
- relative viability ([4]; first compound 0.002 µM): 0.142
- relative viability ([4]; first compound 0.006325 µM): 0.107
- relative viability ([4]; first compound 0.02 µM): 0.0615
- relative viability ([5]; first compound 0.0002 µM): 0.378
- relative viability ([5]; first compound 0.000632 µM): 0.439
- relative viability ([5]; first compound 0.002 µM): 0.276
- relative viability ([5]; first compound 0.006325 µM): 0.309
- relative viability ([5]; first compound 0.02 µM): 0.252
- relative viability ([6]; first compound 0.0002 µM): 0.237
- relative viability ([6]; first compound 0.000632 µM): 0.297
- relative viability ([6]; first compound 0.002 µM): 0.289
- relative viability ([6]; first compound 0.006325 µM): 0.22
- relative viability ([6]; first compound 0.02 µM): 0.155
- relative viability ([7]; first compound 0.0002 µM): 0.34
- relative viability ([7]; first compound 0.000632 µM): 0.456
- relative viability ([7]; first compound 0.002 µM): 0.337
- relative viability ([7]; first compound 0.006325 µM): 0.311
- relative viability ([7]; first compound 0.02 µM): 0.19
- relative viability ([8]; first compound 0.0002 µM): 0.588
- relative viability ([8]; first compound 0.000632 µM): 0.372
- relative viability ([8]; first compound 0.002 µM): 0.285
- relative viability ([8]; first compound 0.006325 µM): 0.277
- relative viability ([9]; first compound 0.0002 µM): 0.439
- relative viability ([9]; first compound 0.000632 µM): 0.469
- relative viability ([9]; first compound 0.002 µM): 0.402
- relative viability ([9]; first compound 0.006325 µM): 0.327
- relative viability ([9]; first compound 0.02 µM): 0.272
- relative viability ([10]; first compound 0.0002 µM): 0.433
- relative viability ([10]; first compound 0.000632 µM): 0.454
- relative viability ([10]; first compound 0.002 µM): 0.423
- relative viability ([10]; first compound 0.006325 µM): 0.406
- relative viability ([10]; first compound 0.02 µM): 0.339
- relative viability ([11]; first compound 0.0002 µM): 0.338
- relative viability ([11]; first compound 0.000632 µM): 0.236
- relative viability ([11]; first compound 0.002 µM): 0.119
- relative viability ([11]; first compound 0.006325 µM): 0.0789
- relative viability ([11]; first compound 0.02 µM): 0.0711
- relative viability ([12]; first compound 0.0002 µM): 0.351
- relative viability ([12]; first compound 0.000632 µM): 0.345
- relative viability ([12]; first compound 0.002 µM): 0.279
- relative viability ([12]; first compound 0.006325 µM): 0.175
- relative viability ([12]; first compound 0.02 µM): 0.16
- relative viability ([13]; first compound 0.0002 µM): 0.216
- relative viability ([13]; first compound 0.000632 µM): 0.228
- relative viability ([13]; first compound 0.002 µM): 0.204
- relative viability ([13]; first compound 0.006325 µM): 0.178
- relative viability ([13]; first compound 0.02 µM): 0.105
- relative viability ([14]; first compound 0.0002 µM): 0.467
- relative viability ([14]; first compound 0.000632 µM): 0.339
- relative viability ([14]; first compound 0.002 µM): 0.134
- relative viability ([14]; first compound 0.006325 µM): 0.123
- relative viability ([14]; first compound 0.02 µM): 0.0567
- relative viability ([15]; first compound 0.0002 µM): 0.229
- relative viability ([15]; first compound 0.000632 µM): 0.268
- relative viability ([15]; first compound 0.002 µM): 0.217
- relative viability ([15]; first compound 0.006325 µM): 0.24
- relative viability ([15]; first compound 0.02 µM): 0.176
- relative viability ([16]; first compound 0.0002 µM): 0.809
- relative viability ([16]; first compound 0.000632 µM): 0.371
- relative viability ([16]; first compound 0.002 µM): 0.171
- relative viability ([16]; first compound 0.006325 µM): 0.139
- relative viability ([16]; first compound 0.02 µM): 0.102
- relative viability ([17]; first compound 0.0002 µM): 0.2
- relative viability ([17]; first compound 0.000632 µM): 0.178
- relative viability ([17]; first compound 0.002 µM): 0.199
- relative viability ([17]; first compound 0.006325 µM): 0.149
- relative viability ([17]; first compound 0.02 µM): 0.14
- relative viability ([18]; first compound 0.0002 µM): 0.186
- relative viability ([18]; first compound 0.000632 µM): 0.194
- relative viability ([18]; first compound 0.002 µM): 0.164
- relative viability ([18]; first compound 0.006325 µM): 0.159
- relative viability ([18]; first compound 0.02 µM): 0.126
- relative viability ([19]; first compound 0.0002 µM): 0.396
- relative viability ([19]; first compound 0.000632 µM): 0.361
- relative viability ([19]; first compound 0.002 µM): 0.253
- relative viability ([19]; first compound 0.006325 µM): 0.228
- relative viability ([19]; first compound 0.02 µM): 0.198
- relative viability ([20]; first compound 0.0002 µM): 0.318
- relative viability ([20]; first compound 0.000632 µM): 0.3
- relative viability ([20]; first compound 0.002 µM): 0.265
- relative viability ([20]; first compound 0.006325 µM): 0.247
- relative viability ([20]; first compound 0.02 µM): 0.175
- relative viability ([21]; first compound 0.0002 µM): 0.326
- relative viability ([21]; first compound 0.000632 µM): 0.316
- relative viability ([21]; first compound 0.002 µM): 0.19
- relative viability ([21]; first compound 0.006325 µM): 0.167
- relative viability ([21]; first compound 0.02 µM): 0.072

Source: the supplement of paper PMC10307832
